Assay results: PubChem BioAssay AID2060895 (Molecular Pharmacology Branch, DTP, NCI, 2025)

System: PDC 899932-113-R3-J6 complex spheroid viability
Assay: Anticancer human tumor 899932-113-R3-J6-PDC patient-derived melanoma cell line growth inhibition [RAS]
Conditions: for IC50: curve of first compound; for viability, T/C: stronger effect = lower value
Summary of the method: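 Multi-cell-type spheroids: tumor cells plus HUVEC endothelial cells and mesenchymal stem cells. RAS-pathway inhibitors were combined with targeted agents, each dosed in half-log steps down from clinical Cmax, or from 10 microM when Cmax was unknown.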

[1] = second compound 0.000949 µM, first compound 0.00316 µM
[2] = second compound 0.000949 µM, first compound 0.01 µM
[3] = second compound 0.000949 µM, first compound 0.0316 µM
[4] = second compound 0.000949 µM, first compound 0.1 µM
[5] = second compound 0.003 µM, first compound 0.00316 µM
[6] = second compound 0.003 µM, first compound 0.01 µM
[7] = second compound 0.003 µM, first compound 0.0316 µM
[8] = second compound 0.003 µM, first compound 0.1 µM
[9] = second compound 0.00949 µM, first compound 0.00316 µM
[10] = second compound 0.00949 µM, first compound 0.01 µM
[11] = second compound 0.00949 µM, first compound 0.0316 µM
[12] = second compound 0.00949 µM, first compound 0.1 µM
[13] = second compound 0.03 µM, first compound 0.00316 µM
[14] = second compound 0.03 µM, first compound 0.01 µM
[15] = second compound 0.03 µM, first compound 0.0316 µM
[16] = second compound 0.03 µM, first compound 0.1 µM
[17] = second compound 0.0949 µM, first compound 0.00316 µM
[18] = second compound 0.0949 µM, first compound 0.01 µM
[19] = second compound 0.0949 µM, first compound 0.0316 µM
[20] = second compound 0.0949 µM, first compound 0.1 µM
[21] = second compound 0.3 µM, first compound 0.00316 µM
[22] = second compound 0.3 µM, first compound 0.01 µM
[23] = second compound 0.3 µM, first compound 0.0316 µM
[24] = second compound 0.3 µM, first compound 0.1 µM
[25] = second compound 0.000949 µM, first compound 0.316 µM
[26] = second compound 0.000949 µM, first compound 1 µM
[27] = second compound 0.003 µM, first compound 0.316 µM
[28] = second compound 0.003 µM, first compound 1 µM
[29] = second compound 0.00949 µM, first compound 0.316 µM
[30] = second compound 0.00949 µM, first compound 1 µM
[31] = second compound 0.03 µM, first compound 0.316 µM
[32] = second compound 0.03 µM, first compound 1 µM
[33] = second compound 0.0949 µM, first compound 0.316 µM
[34] = second compound 0.0949 µM, first compound 1 µM
[35] = second compound 0.3 µM, first compound 0.316 µM
[36] = second compound 0.3 µM, first compound 1 µM
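Wherever viability, T/C is given: spheroids exposed to agents for seven days before readout; 100% = DMSO vehicle control wells.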

## CC(C)n1nc(-c2ccc3oc(N)nc3c2)c2c(N)ncnc21 + CCn1c(-c2cccnc2C(C)OC)c2c3cc(ccc31)N1CCOC(CC(NC(=O)C(C(C)C)N(C)C(=O)C3(F)CCN(C(=O)C#CC(C)(C)N(C)C)CC3)C(=O)N3CCCC(N3)C(=O)OCC(C)(C)C2)C1
Second compound 0.000949 µM
  IC50: > 100 nM
Second compound 0.003 µM
  IC50: > 100 nM
Second compound 0.00949 µM
  IC50: > 100 nM
Second compound 0.03 µM
  IC50: > 100 nM
Second compound 0.0949 µM
  IC50: > 100 nM
Second compound 0.3 µM
  IC50: > 100 nM
Second compound 0.000949 µM, first compound 0.000316 µM
  viability, T/C: 107%
Second compound 0.000949 µM, first compound 0.001 µM
  viability, T/C: 97.1%
[1]
  viability, T/C: 101%
[2]
  viability, T/C: 85%
[3]
  viability, T/C: 60.3%
[4]
  viability, T/C: 100%
Second compound 0.003 µM, first compound 0.000316 µM
  viability, T/C: 92.3%
Second compound 0.003 µM, first compound 0.001 µM
  viability, T/C: 107%
[5]
  viability, T/C: 96.7%
[6]
  viability, T/C: 82%
[7]
  viability, T/C: 65%
[8]
  viability, T/C: 102%
Second compound 0.00949 µM, first compound 0.000316 µM
  viability, T/C: 105%
Second compound 0.00949 µM, first compound 0.001 µM
  viability, T/C: 100%
[9]
  viability, T/C: 92.5%
[10]
  viability, T/C: 85.6%
[11]
  viability, T/C: 65.5%
[12]
  viability, T/C: 100%
Second compound 0.03 µM, first compound 0.000316 µM
  viability, T/C: 104%
Second compound 0.03 µM, first compound 0.001 µM
  viability, T/C: 98.5%
[13]
  viability, T/C: 89.3%
[14]
  viability, T/C: 86.1%
[15]
  viability, T/C: 61%
[16]
  viability, T/C: 94.3%
Second compound 0.0949 µM, first compound 0.000316 µM
  viability, T/C: 95.2%
Second compound 0.0949 µM, first compound 0.001 µM
  viability, T/C: 93.5%
[17]
  viability, T/C: 91.3%
[18]
  viability, T/C: 76.7%
[19]
  viability, T/C: 61.1%
[20]
  viability, T/C: 93.1%
Second compound 0.3 µM, first compound 0.000316 µM
  viability, T/C: 86.7%
Second compound 0.3 µM, first compound 0.001 µM
  viability, T/C: 80.1%
[21]
  viability, T/C: 75.6%
[22]
  viability, T/C: 57.9%
[23]
  viability, T/C: 51.2%
[24]
  viability, T/C: 92.9%

## CCN1CCN(Cc2ccc(Nc3ncc(F)c(-c4cc(F)c5nc(C)n(C(C)C)c5c4)n3)nc2)CC1 + CCn1c(-c2cccnc2C(C)OC)c2c3cc(ccc31)N1CCOC(CC(NC(=O)C(C(C)C)N(C)C(=O)C3(F)CCN(C(=O)C#CC(C)(C)N(C)C)CC3)C(=O)N3CCCC(N3)C(=O)OCC(C)(C)C2)C1
Second compound 0.000949 µM
  IC50: > 1000 nM
Second compound 0.003 µM
  IC50: 600 nM
Second compound 0.00949 µM
  IC50: 510 nM
Second compound 0.03 µM
  IC50: 520 nM
Second compound 0.0949 µM
  IC50: 641 nM
Second compound 0.3 µM
  IC50: > 1000 nM
[1]
  viability, T/C: 105%
[2]
  viability, T/C: 104%
[3]
  viability, T/C: 99.5%
[4]
  viability, T/C: 82.7%
[25]
  viability, T/C: 52.9%
[26]
  viability, T/C: 52.1%
[5]
  viability, T/C: 108%
[6]
  viability, T/C: 99.6%
[7]
  viability, T/C: 96.1%
[8]
  viability, T/C: 84.2%
[27]
  viability, T/C: 57.6%
[28]
  viability, T/C: 43.1%
[9]
  viability, T/C: 105%
[10]
  viability, T/C: 106%
[11]
  viability, T/C: 96.6%
[12]
  viability, T/C: 85.6%
[29]
  viability, T/C: 52.4%
[30]
  viability, T/C: 45.4%
[13]
  viability, T/C: 103%
[14]
  viability, T/C: 97.2%
[15]
  viability, T/C: 92.5%
[16]
  viability, T/C: 77.7%
[31]
  viability, T/C: 52.3%
[32]
  viability, T/C: 45.5%
[17]
  viability, T/C: 99.8%
[18]
  viability, T/C: 90.6%
[19]
  viability, T/C: 88%
[20]
  viability, T/C: 73.1%
[33]
  viability, T/C: 55.7%
[34]
  viability, T/C: 46.2%
[21]
  viability, T/C: 91.4%
[22]
  viability, T/C: 89.2%
[23]
  viability, T/C: 83.4%
[24]
  viability, T/C: 70.5%
[35]
  viability, T/C: 49.9%
[36]
  viability, T/C: 53.3%

## C[C@@H](NC(=O)c1ncnc(N)c1Cl)c1ncc(C(=O)Nc2cc(C(F)(F)F)c(Cl)cn2)s1 + CCn1c(-c2cccnc2C(C)OC)c2c3cc(ccc31)N1CCOC(CC(NC(=O)C(C(C)C)N(C)C(=O)C3(F)CCN(C(=O)C#CC(C)(C)N(C)C)CC3)C(=O)N3CCCC(N3)C(=O)OCC(C)(C)C2)C1
Second compound 0.000949 µM
  IC50: 9800 nM
Second compound 0.003 µM
  IC50: 8890 nM
Second compound 0.00949 µM
  IC50: 9630 nM
Second compound 0.03 µM
  IC50: > 10000 nM
Second compound 0.0949 µM
  IC50: > 10000 nM
Second compound 0.3 µM
  IC50: > 10000 nM
[3]
  viability, T/C: 117%
[4]
  viability, T/C: 129%
[25]
  viability, T/C: 141%
[26]
  viability, T/C: 141%
Second compound 0.000949 µM, first compound 3.16 µM
  viability, T/C: 120%
Second compound 0.000949 µM, first compound 10 µM
  viability, T/C: 48.9%
[7]
  viability, T/C: 122%
[8]
  viability, T/C: 125%
[27]
  viability, T/C: 137%
[28]
  viability, T/C: 150%
Second compound 0.003 µM, first compound 3.16 µM
  viability, T/C: 119%
Second compound 0.003 µM, first compound 10 µM
  viability, T/C: 42.2%
[11]
  viability, T/C: 125%
[12]
  viability, T/C: 127%
[29]
  viability, T/C: 140%
[30]
  viability, T/C: 139%
Second compound 0.00949 µM, first compound 3.16 µM
  viability, T/C: 120%
Second compound 0.00949 µM, first compound 10 µM
  viability, T/C: 47.1%
[15]
  viability, T/C: 121%
[16]
  viability, T/C: 132%
[31]
  viability, T/C: 139%
[32]
  viability, T/C: 141%
Second compound 0.03 µM, first compound 3.16 µM
  viability, T/C: 130%
Second compound 0.03 µM, first compound 10 µM
  viability, T/C: 52.5%
[19]
  viability, T/C: 114%
[20]
  viability, T/C: 127%
[33]
  viability, T/C: 135%
[34]
  viability, T/C: 138%
Second compound 0.0949 µM, first compound 3.16 µM
  viability, T/C: 120%
Second compound 0.0949 µM, first compound 10 µM
  viability, T/C: 51.6%
[23]
  viability, T/C: 108%
[24]
  viability, T/C: 118%
[35]
  viability, T/C: 127%
[36]
  viability, T/C: 134%
Second compound 0.3 µM, first compound 3.16 µM
  viability, T/C: 117%
Second compound 0.3 µM, first compound 10 µM
  viability, T/C: 54%
